# Experimental data published in patent US20250084056A1, “SUBSTITUTED OXOISOINDOLINYL PIPERIDINE-2,6-DIONE COMPOUNDS” (BRISTOL-MYERS SQUIBB COMPANY, priority 2023, published 2025).
# What was measured:
# Phospho-Rb (Ser807/811) = assay: Phospho-Retinoblastoma (pRB) Cellular Assay; type: cell-based; conditions: Homo sapiens, OVCAR-3, NIH OVCAR3 cells, 24 hours
# Outline: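 OVCAR3 cells seeded overnight, then dosed with serial dilutions for 24 h at 37° C. Lysed with kit mix plus phosphatase inhibitor, ≥4 h at room temperature, read on EnVision; 100% response set by reference compound at 10 μM, giving IC50 and Ymax.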
# [1] = test system: NIHOVCAR3 ovarian adenocarcinoma xenograft model; assay: In vivo xenograft tumor efficacy study, NIHOVCAR3; set-up: species or system mice; conditions: OVCAR3 xenografts, repeated dosing
# Protocol: The anti-cancer efficacy of Example 35 was evaluated in xenograft models by measuring the reduction in tumor volume in animals treated with Example 35 compared to vehicle control animals. First, 5-10×10^6 tumor cells/animal in a 1:1 Matrigel® mix (0.2 mL total volume) were injected subcutaneously into female NSG mice (for NIHOVCAR3) and SCID mice (for HCC1569). Both strains of mice were purchased from Jackson Laboratory. Once tumors reached ˜150-200 mm^3, animals were randomized into groups of 8-10 animals/treatment arm for efficacy studies. Example 35 was administered via oral gavage (PO) at indicated doses and regimens (Table 7). Tumor growth and body weight were measured twice/week during the course of the study to evaluate efficacy and signs of toxicity.
# Example 35 was formulated in 10% ethanol, 10% Vitamin E—TPGS, 30% propylene glycol, 50% PEG400 and administered by oral gavage (final volume 0.2 mL) at the doses indicated in Table 7. […]
# The efficacy for each treated arm at different dose levels were calculated using the following formula: % ΔT/ΔC=[(TVT−TVT0)/(TVC−TVC0)]×100%. […] The percentage of tumor growth inhibition was calculated from the formula: % TGI=[100%−(% ΔT/ΔC)]. […]
# Example 35 was evaluated for in vivo single-agent efficacy against the HCC1569 breast carcinoma xenograft model and NIHOVCAR3 ovarian adenocarcinoma xenograft model.
# [2] = test system: MKN1 gastric carcinoma xenograft model; assay: In vivo xenograft tumor efficacy study, MKN1; set-up: species or system mice
structure (smiles),measurement,setting,value
"COc1c(COC(=O)Nc2ccc(Oc3ccc(F)c(F)c3)cc2)ccc2c1C(=O)N([C@H]1CCC(=O)NC1=O)C2 (single isomer, unassigned) [Example 35, {2-[(3 S)-2,6-dioxopiperidin-3-yl]-4-methoxy-3-oxo-2,3-dihydro-1H-isoindol-5-yl}methyl N-[4-(3,4-difluorophenoxy)phenyl]carbamate]",IC50,Phospho-Rb (Ser807/811); concentration giving 50% response,85 nM
same,Emax,"Phospho-Rb (Ser807/811); maximum response, reference compound at 10 μM = 100%, read-out: pRB Ymax",114%
same,anti-tumor activity,[1],dose-dependent anti-tumor activity
same,tumor growth inhibition (TGI),"[2]; MKN1 gastric carcinoma xenograft, 30 mpk, QDx28 (as printed in text)",95%
same,"Tumor efficacy, TGI (tumor growth inhibition)","[2]; MKN1 stomach, 10 mg/kg PO, QDx28",95% TGI
same,anti-tumor activity,"[2]; MKN1 xenografts, repeated dosing",dose-dependent anti-tumor activity
